{"source": "ChEMBL document CHEMBL3045269", "about": "“Anti-leukemic activity of sulfonoquinovosyldiacylglyceride (SQDG): a constituent of Azadirachta indica leaves” (Med Chem Res, 2013)", "type_in_all_cases": "functional", "key": {"U-937 [1]": {"test_system": "U-937", "assay": "Cytotoxicity against Homo sapiens (human) U937 cells assessed as growth inhibition at 2 ug/ml after 48 hr by MTT assay relative to untreated control", "conditions": "U-937, 48 h, read-out: GI"}, "K562 [2]": {"test_system": "K562", "assay": "Cytotoxicity against Homo sapiens (human) K562 cells assessed as growth inhibition at 2 ug/ml after 48 hr by MTT assay relative to untreated control", "conditions": "K562, 48 h, read-out: GI"}, "U-937 [3]": {"test_system": "U-937", "assay": "Cytotoxicity against Homo sapiens (human) U937 cells assessed as growth inhibition at 2 ug/ml after 24 hr by MTT assay relative to untreated control", "conditions": "U-937, 24 h, read-out: GI"}, "K562 [4]": {"test_system": "K562", "assay": "Cytotoxicity against Homo sapiens (human) K562 cells assessed as growth inhibition at 2 ug/ml after 24 hr by MTT assay relative to untreated control", "conditions": "K562, 24 h, read-out: GI"}}}
{"smiles": "Nc1ccn([C@@H]2O[C@H](CO)[C@@H](O)[C@@H]2O)c(=O)n1", "note": "[CYTARABINE]", "values": [{"measurement": "inhibition of growth at 2 µg/mL", "setting": "U-937 [1]", "result": 85.1, "unit": "%"}, {"measurement": "inhibition of growth at 2 µg/mL", "setting": "K562 [2]", "result": 65.1, "unit": "%"}, {"measurement": "inhibition of growth at 2 µg/mL", "setting": "U-937 [3]", "result": 59.9, "unit": "%"}, {"measurement": "inhibition of growth at 2 µg/mL", "setting": "K562 [4]", "result": 39.9, "unit": "%"}]}
